Measurements reported in patent publication EP0326331B1, “Substituted quinolines and cinnolines” (Dow AgroSciences LLC, priority 1988, dated 1989).

Experiments:
Type in all cases: in vivo
[1] = test system: Erysiphe graminis tritici (powdery mildew); experiment: Test 1 greenhouse foliar spray screen, powdery mildew on wheat; details: disease control rating, foliar spray on wheat, 400 ppm (+++ at 100 ppm)
[2] = test system: southern armyworm (Spodopetra eridania Cramer); experiment: Mite/insect screen, SAW; details: Spodoptera eridania, percent mortality, SAW, read-out: SAW RESULTS %; for mortality at 200 ppm: SM & MA RATE 200 PPM; for mortality at 400 ppm: SM & MA RATE 400 PPM
Outline: (§1)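 Foliar spray to runoff (10 psi), 1 h drying; aqueous dilutions from acetone/alcohol emulsifier stock. Mortality (%) after standard exposure.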

[3] = test system: Botrytis cinerea (gray mold); experiment: Test 1 greenhouse foliar spray screen, gray mold on grape berries; details: disease control rating, spray on grape berries, 400 ppm (+++ at 100 ppm)
[4] = test system: Pseudoperonospora cubensis (downy mildew); experiment: Test 1 greenhouse foliar spray screen, downy mildew on squash; details: disease control rating, foliar spray on squash, 400 ppm (+++ at 100 ppm)
[5] = test system: Venturia inaequalis (apple scab); experiment: Test 1 greenhouse foliar spray screen, apple scab on apple seedling; details: disease control rating, foliar spray on apple seedling, 400 ppm (+++ at 100 ppm)
[6] = test system: melon aphids (Aphis gossypii Glover); experiment: Mite/insect screen, MA; details: Aphis gossypii, percent mortality, SAW, read-out: MA RESULTS %; for mortality at 200 ppm: SM & MA RATE 200 PPM; for mortality at 400 ppm: SM & MA RATE 400 PPM
Outline: as §1

[7] = test system: Pyricularia oryzae (rice blast); experiment: whole plant or invertebrate; details: disease control rating, foliar spray on rice, 400 ppm (+++ at 100 ppm)
corn rootworm = experiment: Mite/insect screen, CRW; details: percent mortality, read-out: CRW RESULTS %; for mortality at 12 ppm: CRW RATE 12.00 PPM; for mortality at 24 ppm: CRW RATE 24.00 PPM
Outline: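 Following dissolution in equal parts acetone and alcohol with 23 g/L and 13 g/L emulsifier blends and dilution with water, test solutions were scored for percent mortality at the end of standard exposures.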

[8] = test system: Cercospora beticola (leaf spot); experiment: Test 1 greenhouse foliar spray screen, leaf spot on sugar beet; details: disease control rating, foliar spray on sugar beet, 400 ppm (+++ at 100 ppm)
[9] = test system: Septoria tritici (leaf blotch); experiment: Test 1 greenhouse foliar spray screen, leaf blotch on wheat; details: disease control rating, foliar spray on wheat, 400 ppm (+++ at 100 ppm)
[10] = test system: Twospotted spider mites (Tetranychus urticae Koch); experiment: Mite/insect screen, SM; details: for mortality at 200 ppm / mortality at 400 ppm: Tetranychus urticae, percent mortality, SAW, read-out: SM RESULTS %; for mortality at 200 ppm: SM & MA RATE 200 PPM; for mortality at 400 ppm: SM & MA RATE 400 PPM
Outline: as §1

[11] = test system: Puccinia recondita tritici (leaf rust); experiment: Test 1 greenhouse foliar spray screen, leaf rust on wheat; details: disease control rating, foliar spray on wheat, 400 ppm (+++ at 100 ppm)

SMILES	POWD MDEW [1]	mortality at 200 ppm [2] [%]	mortality at 400 ppm [2] [%]	GRAY MOLD [3]	DOWN MDEW [4]	APPL SCAB [5]	mortality at 200 ppm [6] [%]	mortality at 400 ppm [6] [%]	RICE BLAST [7]	mortality at 12 ppm (corn rootworm) [%]	mortality at 24 ppm (corn rootworm) [%]	LEAF SPOT [8]	LEAF BLOT [9]	mortality at 200 ppm [10] [%]	mortality at 400 ppm [10] [%]	LEAF RUST [11]	activity as miticides ([10]; summary statement in the description)
Cc1ccc2nccc(NCCc3ccc(Cl)cc3Cl)c2c1 [Example 53, .N-[2-(2,4-dichlorophenyl)ethyl]-6-methyl-4-quinolinamine]	+++ (90-100% control at 100 ppm)	0	0	- (0-19% control at 400 ppm)	+++ (90-100% control at 100 ppm)	- (0-19% control at 400 ppm)	0	0	+ (20-89% control at 400 ppm)	0	0	+++ (90-100% control at 100 ppm)	+ (20-89% control at 400 ppm)	0	0	+ (20-89% control at 400 ppm)	
COc1cc2c(NCCc3ccccc3)cc(C)nc2cc1Cl [Example 54, 7-chloro-6-methoxy-2-methyl-N-(2-phenylethyl)-4-quinolinamine]	- (0-19% control at 400 ppm)	0		- (0-19% control at 400 ppm)	+++ (90-100% control at 100 ppm)	- (0-19% control at 400 ppm)	0		++ (90-100% control at 400 ppm)	0		+++ (90-100% control at 100 ppm)	+ (20-89% control at 400 ppm)	0		+ (20-89% control at 400 ppm)	
COc1ccccc1CCNc1ccnc2ccccc12 [Example 55, N-[2-(2-methoxyphenyl)ethyl]-4-quinolinamine]	+ (20-89% control at 400 ppm)	0		- (0-19% control at 400 ppm)	++ (90-100% control at 400 ppm)	- (0-19% control at 400 ppm)	0		++ (90-100% control at 400 ppm)	0		+++ (90-100% control at 100 ppm)	- (0-19% control at 400 ppm)	0		+ (20-89% control at 400 ppm)	
Fc1ccc2nccc(NCCc3ccc(Cl)cc3)c2c1 [Example 56, N-[2-(4-chlorophenyl)ethyl]-6-fluoro-4-quinolinamine]	- (0-19% control at 400 ppm)	100	80	- (0-19% control at 400 ppm)	+++ (90-100% control at 100 ppm)	- (0-19% control at 400 ppm)	0	0	++ (90-100% control at 400 ppm)	0	0	+++ (90-100% control at 100 ppm)	+ (20-89% control at 400 ppm)	0	0	++ (90-100% control at 400 ppm)	particularly excellent activity
Cc1cc(NCCc2ccc(Cl)cc2)c2cc(F)ccc2n1 [Example 57, N-[2-(4-chlorophenyl)ethyl]-2-methyl-6-fluoro-4-quinolinamine]	- (0-19% control at 400 ppm)	40	50	- (0-19% control at 400 ppm)	++ (90-100% control at 400 ppm)	- (0-19% control at 400 ppm)	0	0	++ (90-100% control at 400 ppm)	0	0	+++ (90-100% control at 100 ppm)	- (0-19% control at 400 ppm)	0	0	+ (20-89% control at 400 ppm)	
Fc1cccc2c(NCC(c3ccccc3)C3CCCCC3)ccnc12 (stereo not shown) [Example 62, 8-fluoro-N-(2-cyclohexyl-2-phenylethyl)-4-quinolinamine]	- (0-19% control at 400 ppm)		0	- (0-19% control at 400 ppm)	+++ (90-100% control at 100 ppm)	- (0-19% control at 400 ppm)		0	++ (90-100% control at 400 ppm)		0	- (0-19% control at 400 ppm)	+ (20-89% control at 400 ppm)		0	++ (90-100% control at 400 ppm)	
Fc1cccc(F)c1CCNc1ccnc2c(F)cccc12 [Example 65, N-[2-(2,6-difluorophenyl)ethyl]-8-fluoro-4-quinolinamine]	+ (20-89% control at 400 ppm)	0		- (0-19% control at 400 ppm)	+++ (90-100% control at 100 ppm)	- (0-19% control at 400 ppm)	0		+ (20-89% control at 400 ppm)	0		- (0-19% control at 400 ppm)	+ (20-89% control at 400 ppm)	0		++ (90-100% control at 400 ppm)	
Fc1cccc(CCNc2ccnc3c(F)cccc23)c1 [Example 66, 8-fluoro-N-[2-(3-fluorophenyl)ethyl]-4-quinolinamine]	+ (20-89% control at 400 ppm)	0		- (0-19% control at 400 ppm)	+++ (90-100% control at 100 ppm)	- (0-19% control at 400 ppm)	0		++ (90-100% control at 400 ppm)	0		+++ (90-100% control at 100 ppm)	+ (20-89% control at 400 ppm)	0		+++ (90-100% control at 100 ppm)	
